Assay results as given in patent publication US20020076736A1, “Methods of affecting laminin 5 processing” (priority 2000, published 2002).
“Also recorded” adds a separate entry of the source.

Key:
BMP-1 = biological target: T1, BMP-1 (Homo sapiens, UniProt P13497); experiment: Inhibition of BMP-1 activity, enzyme-based assays of collagen proteolysis; assay type: biochemical
T1 sequence (P13497 121-730 isoform P13497-2 limits assumed): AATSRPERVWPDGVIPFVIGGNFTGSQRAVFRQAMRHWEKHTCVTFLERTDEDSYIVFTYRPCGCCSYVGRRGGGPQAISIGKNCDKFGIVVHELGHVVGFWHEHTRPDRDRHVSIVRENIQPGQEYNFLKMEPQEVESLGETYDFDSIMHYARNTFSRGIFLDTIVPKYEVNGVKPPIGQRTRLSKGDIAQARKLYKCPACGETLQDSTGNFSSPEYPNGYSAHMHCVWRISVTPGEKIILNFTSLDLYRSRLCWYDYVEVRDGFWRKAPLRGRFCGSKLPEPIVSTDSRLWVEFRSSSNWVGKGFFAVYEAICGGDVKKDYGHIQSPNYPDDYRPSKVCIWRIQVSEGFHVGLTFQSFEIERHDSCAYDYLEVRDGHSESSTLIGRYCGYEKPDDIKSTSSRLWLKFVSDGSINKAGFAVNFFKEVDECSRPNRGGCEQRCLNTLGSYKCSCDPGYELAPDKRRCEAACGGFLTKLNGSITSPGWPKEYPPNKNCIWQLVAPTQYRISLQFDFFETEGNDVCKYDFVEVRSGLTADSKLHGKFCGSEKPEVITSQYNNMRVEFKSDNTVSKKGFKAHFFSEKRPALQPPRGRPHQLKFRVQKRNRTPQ

MMP-1 = biological target: T2, MMP-1 (Homo sapiens, UniProt P03956); experiment: Inhibition of MMP-1 activity; assay type: biochemical
T2 sequence (P03956 100-469): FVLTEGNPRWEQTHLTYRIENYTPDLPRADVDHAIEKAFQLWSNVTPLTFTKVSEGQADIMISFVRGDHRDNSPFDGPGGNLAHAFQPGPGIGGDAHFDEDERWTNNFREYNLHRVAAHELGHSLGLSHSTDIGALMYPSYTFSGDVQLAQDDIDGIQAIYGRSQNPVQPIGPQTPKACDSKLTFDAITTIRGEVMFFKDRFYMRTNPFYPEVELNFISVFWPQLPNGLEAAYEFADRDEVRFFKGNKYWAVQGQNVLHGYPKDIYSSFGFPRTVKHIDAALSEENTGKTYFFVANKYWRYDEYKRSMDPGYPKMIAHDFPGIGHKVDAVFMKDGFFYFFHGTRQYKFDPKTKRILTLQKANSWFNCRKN

MMP-2 = biological target: T3, MMP-2 (Homo sapiens, UniProt P08253); experiment: Inhibition of MMP-2 activity; assay type: biochemical
T3 sequence (P08253 110-660): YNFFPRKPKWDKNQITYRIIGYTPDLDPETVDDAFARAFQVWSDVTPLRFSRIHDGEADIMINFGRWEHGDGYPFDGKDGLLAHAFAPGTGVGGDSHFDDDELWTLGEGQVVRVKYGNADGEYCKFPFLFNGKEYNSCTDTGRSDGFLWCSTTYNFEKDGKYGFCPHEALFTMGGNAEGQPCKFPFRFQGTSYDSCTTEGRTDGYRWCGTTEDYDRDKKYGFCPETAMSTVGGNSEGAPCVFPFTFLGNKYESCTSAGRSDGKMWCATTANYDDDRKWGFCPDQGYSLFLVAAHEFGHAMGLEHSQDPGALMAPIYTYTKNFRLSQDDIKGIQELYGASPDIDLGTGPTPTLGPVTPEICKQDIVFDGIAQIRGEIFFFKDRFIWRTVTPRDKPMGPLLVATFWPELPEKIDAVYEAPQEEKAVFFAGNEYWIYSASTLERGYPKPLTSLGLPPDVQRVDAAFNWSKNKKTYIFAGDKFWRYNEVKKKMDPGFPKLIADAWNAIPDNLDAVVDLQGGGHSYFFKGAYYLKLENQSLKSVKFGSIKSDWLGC

MMP-9 = MMP-9 (Homo sapiens, UniProt P14780); experiment: Inhibition of MMP-9 activity; assay type: biochemical
MMP-9, sequence (P14780 94-707, species assumed): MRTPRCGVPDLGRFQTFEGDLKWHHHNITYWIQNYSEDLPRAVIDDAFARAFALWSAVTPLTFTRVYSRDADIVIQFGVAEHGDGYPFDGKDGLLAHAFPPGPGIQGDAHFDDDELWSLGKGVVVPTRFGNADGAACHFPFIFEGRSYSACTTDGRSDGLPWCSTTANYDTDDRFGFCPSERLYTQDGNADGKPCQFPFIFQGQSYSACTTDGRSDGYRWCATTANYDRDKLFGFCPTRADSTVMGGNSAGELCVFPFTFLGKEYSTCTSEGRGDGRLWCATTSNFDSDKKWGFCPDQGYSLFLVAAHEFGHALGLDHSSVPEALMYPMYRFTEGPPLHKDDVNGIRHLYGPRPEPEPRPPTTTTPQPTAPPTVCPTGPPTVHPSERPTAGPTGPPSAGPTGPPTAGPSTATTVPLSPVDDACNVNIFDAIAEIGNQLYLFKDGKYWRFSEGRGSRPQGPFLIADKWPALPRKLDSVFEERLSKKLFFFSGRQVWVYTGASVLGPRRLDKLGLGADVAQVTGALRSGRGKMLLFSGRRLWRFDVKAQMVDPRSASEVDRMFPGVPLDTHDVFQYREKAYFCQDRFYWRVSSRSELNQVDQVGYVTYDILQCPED

MT1-MMP = MT1-MMP (Homo sapiens, UniProt P50281); experiment: Inhibition of MT1-MMP activity; assay type: biochemical
cultured cells = experiment: Toxicity to cultured cells; assay type: cell-based; conditions: for toxicity to cultured cells at 100 times inhibitory levels: 100 times the concentration which inhibited BMP-1 activity; for toxic effect on cells: cell culture
keratinocytes = experiment: Keratinocyte migration, Boyden chambers; assay type: cell-based; conditions: for inhibition of keratinocyte migration, dose dependence: Boyden chamber and scratch assays
Procedure: Compounds 1 and 2 were used to examine the functional effects of processing by BMP-1 related proteins on keratinocyte migration. […] Keratinocytes were analyzed for migration in Boyden chambers in the presence of increasing amounts of the inhibitors. […] (Koivunen et al. (1999) Nature Biotechnology 17:768-774.)

squamous carcinoma cells = experiment: Migration of squamous carcinoma cells (general statement); assay type: cell-based
[1] = biological target: unprocessed human laminin 5 (α3 chain of 200 kDa, β3 chain of 140 kDa, γ2 chain of 155 kDa) (UniProt Q16787)
unprocessed human laminin 5 (α3 chain of 200 kDa, β3 chain of 140 kDa, γ2 chain of 155 kDa), sequence (Q16787 whole entry, looked up): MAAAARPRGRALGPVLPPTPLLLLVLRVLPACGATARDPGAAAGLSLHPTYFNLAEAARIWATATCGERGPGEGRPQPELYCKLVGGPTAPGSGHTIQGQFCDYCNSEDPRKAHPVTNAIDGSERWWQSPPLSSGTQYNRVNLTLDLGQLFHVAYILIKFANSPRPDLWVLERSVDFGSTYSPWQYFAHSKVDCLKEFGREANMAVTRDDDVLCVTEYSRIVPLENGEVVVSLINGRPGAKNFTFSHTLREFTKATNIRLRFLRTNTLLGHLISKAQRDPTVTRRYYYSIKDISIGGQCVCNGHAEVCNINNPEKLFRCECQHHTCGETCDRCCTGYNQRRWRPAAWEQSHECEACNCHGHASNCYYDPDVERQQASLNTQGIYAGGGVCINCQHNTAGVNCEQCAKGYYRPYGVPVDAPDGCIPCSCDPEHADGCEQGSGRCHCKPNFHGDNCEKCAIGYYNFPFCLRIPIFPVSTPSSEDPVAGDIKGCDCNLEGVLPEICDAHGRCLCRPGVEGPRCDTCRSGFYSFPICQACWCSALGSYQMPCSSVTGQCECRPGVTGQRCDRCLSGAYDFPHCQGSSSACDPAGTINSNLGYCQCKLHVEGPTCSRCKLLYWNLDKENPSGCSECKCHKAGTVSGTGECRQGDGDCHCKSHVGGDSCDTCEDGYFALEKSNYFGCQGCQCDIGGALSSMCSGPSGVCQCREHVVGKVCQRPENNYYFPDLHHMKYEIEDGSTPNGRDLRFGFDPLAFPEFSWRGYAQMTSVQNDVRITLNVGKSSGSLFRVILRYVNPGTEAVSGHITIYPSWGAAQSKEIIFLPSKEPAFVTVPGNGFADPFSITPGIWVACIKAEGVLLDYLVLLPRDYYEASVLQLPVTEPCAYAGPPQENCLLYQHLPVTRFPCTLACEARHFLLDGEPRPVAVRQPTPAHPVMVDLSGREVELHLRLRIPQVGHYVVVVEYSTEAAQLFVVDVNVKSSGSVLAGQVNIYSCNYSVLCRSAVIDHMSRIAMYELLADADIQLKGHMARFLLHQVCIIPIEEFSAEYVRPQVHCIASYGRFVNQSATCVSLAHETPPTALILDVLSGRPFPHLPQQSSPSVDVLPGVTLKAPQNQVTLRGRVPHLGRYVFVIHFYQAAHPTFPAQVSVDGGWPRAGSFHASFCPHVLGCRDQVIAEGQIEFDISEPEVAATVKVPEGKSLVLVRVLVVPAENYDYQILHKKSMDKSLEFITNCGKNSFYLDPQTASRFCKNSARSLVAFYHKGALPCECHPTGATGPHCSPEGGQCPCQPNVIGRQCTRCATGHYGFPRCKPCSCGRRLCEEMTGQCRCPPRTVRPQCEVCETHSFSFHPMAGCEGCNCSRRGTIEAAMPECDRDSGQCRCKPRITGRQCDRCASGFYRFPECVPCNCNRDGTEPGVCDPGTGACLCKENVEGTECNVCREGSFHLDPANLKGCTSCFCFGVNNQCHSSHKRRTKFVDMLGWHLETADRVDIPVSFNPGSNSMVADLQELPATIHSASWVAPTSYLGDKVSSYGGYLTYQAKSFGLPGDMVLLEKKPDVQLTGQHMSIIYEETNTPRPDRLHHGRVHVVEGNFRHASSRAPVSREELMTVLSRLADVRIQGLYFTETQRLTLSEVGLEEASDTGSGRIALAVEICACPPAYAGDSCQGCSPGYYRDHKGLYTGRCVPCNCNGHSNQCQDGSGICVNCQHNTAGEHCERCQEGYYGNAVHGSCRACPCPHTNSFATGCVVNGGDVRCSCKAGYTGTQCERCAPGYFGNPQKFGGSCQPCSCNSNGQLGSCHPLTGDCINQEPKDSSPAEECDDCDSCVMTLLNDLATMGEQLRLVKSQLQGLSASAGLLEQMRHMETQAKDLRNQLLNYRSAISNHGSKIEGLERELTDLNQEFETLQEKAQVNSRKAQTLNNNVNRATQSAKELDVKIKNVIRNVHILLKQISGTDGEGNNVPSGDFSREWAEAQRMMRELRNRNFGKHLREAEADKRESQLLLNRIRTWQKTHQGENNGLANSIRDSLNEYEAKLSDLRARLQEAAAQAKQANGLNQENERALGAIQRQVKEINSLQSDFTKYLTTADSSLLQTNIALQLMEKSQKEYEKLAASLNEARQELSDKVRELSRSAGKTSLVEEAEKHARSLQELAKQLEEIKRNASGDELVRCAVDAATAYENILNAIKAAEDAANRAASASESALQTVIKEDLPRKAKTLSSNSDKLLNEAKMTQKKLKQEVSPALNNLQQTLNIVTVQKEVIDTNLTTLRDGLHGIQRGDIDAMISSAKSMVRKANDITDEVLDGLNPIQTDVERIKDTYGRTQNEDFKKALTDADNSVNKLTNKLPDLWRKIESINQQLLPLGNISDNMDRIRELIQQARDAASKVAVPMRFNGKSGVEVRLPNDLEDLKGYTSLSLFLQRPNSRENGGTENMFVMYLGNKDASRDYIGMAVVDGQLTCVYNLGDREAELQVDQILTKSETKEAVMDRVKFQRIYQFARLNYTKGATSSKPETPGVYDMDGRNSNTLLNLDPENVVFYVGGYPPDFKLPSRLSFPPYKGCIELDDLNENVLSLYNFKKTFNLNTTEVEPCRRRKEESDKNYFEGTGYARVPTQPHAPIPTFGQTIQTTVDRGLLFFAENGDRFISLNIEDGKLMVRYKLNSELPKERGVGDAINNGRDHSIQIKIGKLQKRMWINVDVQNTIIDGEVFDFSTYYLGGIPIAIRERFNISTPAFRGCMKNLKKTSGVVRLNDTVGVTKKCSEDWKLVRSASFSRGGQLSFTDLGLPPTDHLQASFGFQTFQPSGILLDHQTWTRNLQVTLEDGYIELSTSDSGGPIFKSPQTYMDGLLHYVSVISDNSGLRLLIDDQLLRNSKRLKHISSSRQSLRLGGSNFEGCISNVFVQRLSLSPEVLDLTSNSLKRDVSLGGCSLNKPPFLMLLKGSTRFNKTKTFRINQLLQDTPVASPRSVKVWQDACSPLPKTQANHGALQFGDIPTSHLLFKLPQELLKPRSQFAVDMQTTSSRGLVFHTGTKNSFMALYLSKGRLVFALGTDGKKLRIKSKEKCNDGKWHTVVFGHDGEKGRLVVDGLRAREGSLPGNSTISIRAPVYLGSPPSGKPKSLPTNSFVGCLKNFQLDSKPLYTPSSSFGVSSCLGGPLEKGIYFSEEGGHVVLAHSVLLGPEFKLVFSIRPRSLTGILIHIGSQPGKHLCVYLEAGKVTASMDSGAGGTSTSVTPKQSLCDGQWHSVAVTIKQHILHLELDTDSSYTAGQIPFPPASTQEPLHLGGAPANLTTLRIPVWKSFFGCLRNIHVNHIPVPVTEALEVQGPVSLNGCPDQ

Compound | inhibition of BMP-1 activity (BMP-1) | potency of BMP-1 inhibition relative to the other compounds (BMP-1) | inhibition of activity of MMP-1 (MMP-1) | inhibition of activity of MMP-2 (MMP-2) | inhibition of activity of MMP-9 (MMP-9) | inhibition of activity of MT1-MMP (MT1-MMP) | toxicity to cultured cells at 100 times inhibitory levels (cultured cells) | toxic effect on cells (cultured cells) | inhibition of keratinocyte migration (keratinocytes) | inhibition of keratinocyte migration, dose dependence (keratinocytes) | inhibition of migration of squamous carcinoma cells (squamous carcinoma cells) | dose required to achieve nearly complete inhibition of migration (keratinocytes; Boyden chambers) [µM] | inhibition of migration of keratinocytes, dose dependence (keratinocytes; Boyden chambers, 0, 10, 23 μM) | processing of collagen XVII (collagen XVII) | digestion of type IV collagen (positive control, data not shown) (type IV collagen) | processing of collagen IV (type IV collagen) | cleavage of human laminin 5 [1] | digestion of laminin 5 (100 ng/ml MMP-2, 37° C., 16 hours, western blot) [1]
COc1ccc(CCN(CCC(=O)NO)S(=O)(=O)c2ccc(C(N)=NO)cc2)cc1 [Compound 3] | showed inhibition of BMP-1 activity | slightly less potent | no inhibition | no inhibition | no inhibition | no inhibition | nontoxic | low cytotoxicity; also recorded: no toxic effect on cells | potently inhibit | inhibition of KC migration in a dose-dependent manner | potently inhibit |  |  |  |  |  |  | 
O=C(CCCC1C(=O)N(C23CC4CC(CC(C4)C2)C3)C(=O)N1Cc1ccccn1)NO (stereo not shown) [Compound 1] | showed inhibition of BMP-1 activity |  | no inhibition | no inhibition | no inhibition | no inhibition | nontoxic | nontoxic; also recorded: no toxic effect on cells | potently inhibit | inhibition of KC migration in a dose-dependent manner | potently inhibit | 23 | dose dependent |  |  |  |  | 
MMP-2 |  |  |  |  |  |  |  |  |  |  |  |  |  | it readily processed collagen XVII and collagen IV | MMP-2 completely digested an equimolar quantity of type IV collagen under the same conditions | it readily processed collagen XVII and collagen IV | it failed to cleave human laminin 5, even at six times the enzyme-to-substrate ratio used for BMP-1 cleavage studies | no digestion of laminin 5 was seen with 100 ng/ml MMP-2 (over three times the amount of BMP-1 on a molar basis)
